Our source for the IC50 and EC50 values is patent publication US20260209208A1, “PHENYL-PYRAZOLE CARBOXAMIDE COMPOUNDS” (Acrivon Therapeutics, Inc., priority 2022, published 2026).

Some results are limits rather than exact numbers.

Test [1] addresses T1, recombinant human PMYT-1 (Myt1 kinase) (Homo sapiens, UniProt Q99640).
T1 construct: full length PMYT-1 was expressed by baculovirus in insect cells using a N-terminal GST tag; purchased Invitrogen A30984; host or cells: insect cells (baculovirus)
T1 sequence (Q99640 1-499): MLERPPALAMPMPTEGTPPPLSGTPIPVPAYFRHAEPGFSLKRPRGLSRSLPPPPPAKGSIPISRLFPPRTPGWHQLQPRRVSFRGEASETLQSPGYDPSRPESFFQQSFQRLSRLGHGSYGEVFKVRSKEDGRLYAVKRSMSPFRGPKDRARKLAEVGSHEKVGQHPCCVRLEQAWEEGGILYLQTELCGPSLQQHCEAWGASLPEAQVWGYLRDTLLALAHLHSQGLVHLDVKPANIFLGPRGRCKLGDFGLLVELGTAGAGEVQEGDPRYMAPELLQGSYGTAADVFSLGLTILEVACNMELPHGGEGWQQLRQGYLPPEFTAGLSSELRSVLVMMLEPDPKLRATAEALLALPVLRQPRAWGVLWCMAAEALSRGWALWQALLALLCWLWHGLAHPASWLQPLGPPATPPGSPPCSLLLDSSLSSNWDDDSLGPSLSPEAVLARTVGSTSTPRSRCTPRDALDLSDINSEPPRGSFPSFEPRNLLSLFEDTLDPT
Nature of the test: LanthaScreen Europium (Eu) Kinase Binding Assay for Myt1 kinase. To be noted: TR-FRET tracer 178 displacement, GST-tagged full length PMYT-1, 60 min, room temperature; mean IC50; read-out: LANTHA Kinase Binding for PMyt1. The source says:
We used a LanthaScreen Europium (Eu) Kinase Binding Assay to determine the binding of provided compounds to Myt1 kinase. The assay utilizes an Alexa Fluor 647-labeled ATP competitive kinase tracer that binds to the ATP binding site of a GST-tagged Myt1 kinase, while a europium (Eu) labeled antibody binds to the GST tag. The proximity of fluorescently labeled kinase tracer and europium (Eu) donor fluorophore antibody leads to fluorescence resonance energy transfer (FRET) to the fluorescence label (acceptor) upon excitation of the Eu (donor). Displacement of tracer from the ATP-binding site by a test compound disturbs the proximity between both labels thus lowering the FRET.
This time resolved-FRET binding assay was performed in white 384-well low volume plates (Greiner, cat #784075), at room temperature in kinase buffer A (KBA; Invitrogen cat # PV3189), consisting of 50 mM HEPES-NaOH (pH 7.5), 0.01% Brij-35, 10 mM MgCl2, and 1 mM EGTA. 5 μl of compound (diluted in reaction buffer, to 1% DMSO) were added to various wells in the plate, followed by 5 μl each of recombinant human PMYT-1 (full length PMYT-1 was expressed by baculovirus in insect cells using a N-terminal GST tag (MW: 80.8 kDa) (Invitrogen cat #A30984) and LanthaScreen Eu-anti-GST antibody (Invitrogen, cat #PV5594). After this, 5 μl of kinase tracer 178 (Invitrogen, cat #PV5593) was added to the plate and the plate was incubated for 60 minutes at room temperature. The final assay conditions in each well were: 3 nM tracer 178, 2.5 nM PMYT-1 and 1 nM Eu-labeled antibody in total assay volume of 15 μl. An Envision 2104 (Perkin-Elmer) Plate Reader with the following time-resolve fluorescence setting was used for performing LanthaScreen kinase binding assay. • Excitation 320 nm (30 nm bandpass) • Kinase Tracer Emission 665 nm (10 nm bandpass) • LanthaScreen Eu-anti-Tag Antibody Emission 615 nm (10 nm bandpass) • Dichroic Mirror Instrument dependent • Delay Time 100 μs • Integration Time 200 μs
To calculate the emission ratio, the acceptor/tracer emission ([…]) was divided by the antibody/donor emission ([…]) and the average of duplicate measurement was used for calculations. Data plotting, analysis of binding, and curve fitting was done using Excel add-in XLfit version 5.5.0.5 (IDBS, Guildford, United Kingdom).

For another test, the target named is T2, Myt1 Kinase (Homo sapiens, UniProt Q99640).
T2 construct: endogenous in cells; host or cells: DAOY medulloblastoma cells (ATCC)
T2 sequence (Q99640 1-499): T1 sequence (Q99640 1-499)
As to the kind of experiment: AlphaLISA SureFire Ultra Human Phospho-CDK1 (Thr14) target engagement assay in DAOY cells. Format: cell-based. To be noted: 4 h incubation, Cdk1 phosphorylated on threonine 14, read-out: TE Myt1 Kinase (AlphaLISA). The procedure: The following cellular assay was used to determine the extent to which the compounds disclosed herein inhibit phosphorylation of CDK1 at Thr 14.
(§1) DAOY medulloblastoma cell line (ATCC) was cultured in Minimum Essential Medium Eagle supplemented with 10% fetal calf serum (Sigma), 1% Penicillin-Streptomycin and 10 mM HEPES buffer (HyClone). Cell cultures were kept in a humidified incubator at 37° C. and 5% CO2. Cells were routinely tested for Mycoplasma contamination.
For target engagement assessment, quantification of Cdk1 phosphorylated on threonine 14 was detected using the AlphaLISA® SureFire® Ultra™ Human Phospho-CDK1 (Thr14) assay (Perkin Elmer). DAOY cells were seeded into tissue culture 96-well plates (VWR) to a density of 10,000 cells per well. Twenty-four hours post-seeding cells were incubated for 4 h with test compounds at concentrations ranging from 7 to 5000 nM. Cells were washed with PBS and lysed in 50 μl AlphaLISA® lysis buffer before freezing at −80° C. Ten μl of the lysate was transferred to 384 well plates and incubated with AlphaLISA® donor and acceptor beads according to the manufacturer's instructions. Dose response curves and EC50 values were calculated and visualized using GraphPad Prism version 9.

Another test has as its system DAOY cells. Nature of the test: Cell Titer Glo viability assay. As to conditions: Homo sapiens, 144 hours, Cell Titer Glo 2.0. In kind it is cell-based. The procedure: as §1
DAOY cells were seeded at a density of 250 cells per well in tissue culture 384 well plates (Corning Costar). After overnight incubation, cells were incubated with test compounds at concentrations ranging from 0.17 to 10,000 nM. Viability compared to untreated control was assessed at 144 hours using Cell Titer Glo® 2.0 Viability Assay (Promega).

In the case of `Cc1ccc(O)c(C)c1-n1nc(-c2cc(-c3ccncc3)co2)c(C(N)=O)c1N` [Compound 95, 5-amino-1-(3-hydroxy-2,6-xylyl)-3-[4-(4-pyridyl)-2-furyl]-4-pyrazolecarboxamide], the IC50 in test [1] is at most 10 nM. The EC50 is at most 250 nM at Myt1 Kinase and at most 500 nM in the test on DAOY cells.

Consider `Cc1ccc(O)c(C)c1-n1nc(-c2cc(-c3ccccn3)co2)c(C(N)=O)c1N` [Compound 98, 5-amino-1-(3-hydroxy-2,6-xylyl)-3-[4-(2-pyridyl)-2-furyl]-4-pyrazolecarboxamide], for which the IC50 in test [1] was at most 10 nM. Also, the EC50 was at most 250 nM on Myt1 Kinase and at most 500 nM with DAOY cells.

On to `Cc1ccc2[nH]ncc2c1-n1nc(-c2ccccc2)c(C(N)=O)c1N` [Compound 5, 5-amino-1-(5-methyl-1H-indazol-4-yl)-3-phenyl-1H-pyrazole-4-carboxamide], for which, in test [1], the IC50 fell in the range of 10 to 100 nM. Besides, the EC50 on Myt1 Kinase is above 1000 nM.

Consider `Cc1ccc2[nH]ncc2c1-n1nc(-c2ccc(Br)o2)c(C(N)=O)c1N` [Compound 85, 5-amino-3-(5-bromo-2-furyl)-1-(5-methyl-1H-indazol-4-yl)-4-pyrazolecarboxamide], for which the IC50 in test [1] was 10 to 100 nM. Also, at Myt1 Kinase, the EC50 was above 1000 nM.

Consider `Cc1ccc(O)c(C)c1-n1nc(-c2ccoc2)c(C(N)=O)c1N` [Compound 76, 5-amino-3-(3-furyl)-1-(3-hydroxy-2,6-xylyl)-4-pyrazolecarboxamide], for which the IC50 in test [1] was in the range of 10 to 100 nM. For the same compound, at Myt1 Kinase, the EC50 was above 1000 nM.

Turning to `NC(=O)c1c(-c2cc(Br)co2)nn(-c2c(Cl)ccc(O)c2Cl)c1N` [Compound 92, 5-amino-3-(4-bromo-2-furyl)-1-(2,6-dichloro-3-hydroxyphenyl)-4-pyrazolecarboxamide], the IC50 in test [1] fell in the range of 10 to 100 nM. In addition, at Myt1 Kinase, the EC50 is 500 to 1000 nM.

Regarding `Cc1ccc(O)c(C)c1-n1nc(-c2ccco2)c(C(N)=O)c1N` (single isomer, unassigned) [Compound 105, 5-amino-3-(furan-2-yl)-1-(3-hydroxy-2,6-dimethylphenyl)-1H-pyrazole-4-carboxamide], the IC50 in test [1] fell in the range of 10 to 100 nM. At Myt1 Kinase, the EC50 was above 1000 nM.

`Cc1ccc(O)cc1-n1nc(-c2ccccc2)c(C(N)=O)c1N` [Compound 1, 5-amino-1-(5-hydroxy-2-methylphenyl)-3-phenyl-1H-pyrazole-4-carboxamide]: the IC50 in test [1] is 100 to 250 nM. The EC50 on Myt1 Kinase was in the range of 500 to 1000 nM.

Take `NC(=O)c1c(-c2cc3ccccc3o2)nn(-c2c(Cl)ccc(O)c2Cl)c1N` [Compound 93, 5-amino-3-(1-benzofuran-2-yl)-1-(2,6-dichloro-3-hydroxyphenyl)-4-pyrazolecarboxamide]: the IC50 in test [1] lay in the range of 10 to 100 nM. Also, the EC50 on Myt1 Kinase lay within 500 to 1000 nM.

For `NC(=O)c1c(-c2ccco2)nn(-c2c(Cl)ccc(O)c2Cl)c1N` [Compound 91, 5-amino-1-(2,6-dichloro-3-hydroxyphenyl)-3-(2-furyl)-4-pyrazolecarboxamide], in test [1], the IC50 was in the range of 10 to 100 nM. Further, on Myt1 Kinase, the EC50 was above 1000 nM.

As for `Cc1ccc(O)c(C)c1-n1nc(-c2coc(Br)c2)c(C(N)=O)c1N` [Compound 78, 5-amino-3-(5-bromo-3-furyl)-1-(3-hydroxy-2,6-xylyl)-4-pyrazolecarboxamide], in test [1], the IC50 was in the range of 10 to 100 nM. In addition, the EC50 at Myt1 Kinase was in the range of 250 to 500 nM.

Consider `Cc1cc(Cl)c(O)c(C)c1-n1nc(-c2ccc(Br)o2)c(C(N)=O)c1N` [Compound 74, 5-amino-3-(5-bromo-2-furyl)-1-(4-chloro-3-hydroxy-2,6-xylyl)-4-pyrazolecarboxamide], for which, in test [1], the IC50 lay within 10 to 100 nM. Besides, the EC50 at Myt1 Kinase is above 1000 nM.

Take `Cc1ccc2[nH]ncc2c1-n1nc(-c2cc3ccccc3o2)c(C(N)=O)c1N` [Compound 77, 5-amino-3-(1-benzofuran-2-yl)-1-(5-methyl-1H-indazol-4-yl)-4-pyrazolecarboxamide]: the IC50 in test [1] was 10 to 100 nM. Further, at Myt1 Kinase, the EC50 was above 1000 nM.

With `Cc1ccc(O)c(C)c1-n1nc(-c2ncc[nH]2)c(C(N)=O)c1N` [Compound 125], the IC50 in test [1] was at most 10 nM. The EC50 on Myt1 Kinase was in the range of 500 to 1000 nM.

With `Cc1cc(-c2nn(-c3c(C)ccc(O)c3C)c(N)c2C(N)=O)oc1C` [Compound 89, 5-amino-3-(4,5-dimethyl-2-furyl)-1-(3-hydroxy-2,6-xylyl)-4-pyrazolecarboxamide], the IC50 in test [1] is at most 10 nM. Besides, at Myt1 Kinase, the EC50 was in the range of 250 to 500 nM.

With `Cc1ccoc1-c1nn(-c2c(C)ccc(O)c2C)c(N)c1C(N)=O` [Compound 83, 5-amino-1-(3-hydroxy-2,6-xylyl)-3-(3-methyl-2-furyl)-4-pyrazolecarboxamide], the IC50 in test [1] is 10 to 100 nM. Further, on Myt1 Kinase, the EC50 was above 1000 nM.

For `Cc1ccc(O)c(C)c1-n1nc(-c2nccn2C)c(C(N)=O)c1N` [Compound 124], in test [1], the IC50 lay within 10 to 100 nM. Moreover, on Myt1 Kinase, the EC50 was above 1000 nM.

Regarding `Cc1ccc(O)c(C)c1-n1nc(-c2cccc(F)c2)c(C(N)=O)c1N` [Compound 61], the IC50 in test [1] is 10 to 100 nM. Further, at Myt1 Kinase, the EC50 was above 1000 nM.

Turning to `Cc1ccc(O)c(C)c1-n1nc(-c2ccsc2)c(C(N)=O)c1N` [Compound 120], the IC50 in test [1] was at most 10 nM. The EC50 on Myt1 Kinase is 250 to 500 nM.

In the case of `Cc1ccc2[nH]ncc2c1-n1nc(-c2ccco2)c(C(N)=O)c1N` [Compound 84, 5-amino-3-(2-furyl)-1-(5-methyl-1H-indazol-4-yl)-4-pyrazolecarboxamide], the IC50 in test [1] lay within 10 to 100 nM. Further, at Myt1 Kinase, the EC50 is above 1000 nM.

Take `Cc1ccc(O)cc1-n1nc(-c2cccc(Br)c2)c(C(N)=O)c1N` [Compound 6, 5-amino-3-(3-bromophenyl)-1-(5-hydroxy-2-methylphenyl)-1H-pyrazole-4-carboxamide]: the IC50 in test [1] is above 250 nM. Further, the EC50 on Myt1 Kinase is above 1000 nM.

Take `Cc1ccc(O)c(C)c1-n1nc(-c2ccc(-c3ccccn3)o2)c(C(N)=O)c1N` [Compound 100, 5-amino-1-(3-hydroxy-2,6-xylyl)-3-[5-(2-pyridyl)-2-furyl]-4-pyrazolecarboxamide]: the EC50 was 250 to 500 nM at Myt1 Kinase and above 1000 nM in the test on DAOY cells.

On to `Cc1ccc(O)cc1-n1nc(-c2ccc(Cl)cc2)c(C(N)=O)c1N` [Compound 4, 5-amino-3-(4-chlorophenyl)-1-(5-hydroxy-2-methylphenyl)-1H-pyrazole-4-carboxamide], for which, in test [1], the IC50 was in the range of 100 to 250 nM. In addition, on Myt1 Kinase, the EC50 is above 1000 nM.
